Values joined by “and” are separate entries in the source; they are usually repeats but may differ in a detail not shown here. Equal entries are not always repeated.
Legend:
[1] = test system: other receptors, ion channels, and uptake sites (Table 2); assay: Binding panel at 1 μM; details: any site of Table 2
Description: Rimonabant also binds weakly to the Vanilloid 1 (TRPV1) receptor channel. […] CE-178253 was not evaluated against TRPM8. Rimonabant has been reported to bind to TRPM8 [21].

[2] = Plasma to brain concentration ratios (brain impairment); format: in vivo; details: Sprague-Dawley, rat, brain and plasma (unbound and total), oral; mean ± SD over 0.3, 1, 3, 10 mg/kg p.o., n = 3 per dose; read-out: Ratios of unbound plasma and total plasma to unbound brain and total brain concentrations
human CB1 in CHO cells = biological target: T1, human CB1 in CHO cells (Homo sapiens, UniProt P21554); assay: GTPγ[35S] inverse agonist assay; format: biochemical
T1 construct: expressed in transfected cells
T1 sequence (P21554 whole entry): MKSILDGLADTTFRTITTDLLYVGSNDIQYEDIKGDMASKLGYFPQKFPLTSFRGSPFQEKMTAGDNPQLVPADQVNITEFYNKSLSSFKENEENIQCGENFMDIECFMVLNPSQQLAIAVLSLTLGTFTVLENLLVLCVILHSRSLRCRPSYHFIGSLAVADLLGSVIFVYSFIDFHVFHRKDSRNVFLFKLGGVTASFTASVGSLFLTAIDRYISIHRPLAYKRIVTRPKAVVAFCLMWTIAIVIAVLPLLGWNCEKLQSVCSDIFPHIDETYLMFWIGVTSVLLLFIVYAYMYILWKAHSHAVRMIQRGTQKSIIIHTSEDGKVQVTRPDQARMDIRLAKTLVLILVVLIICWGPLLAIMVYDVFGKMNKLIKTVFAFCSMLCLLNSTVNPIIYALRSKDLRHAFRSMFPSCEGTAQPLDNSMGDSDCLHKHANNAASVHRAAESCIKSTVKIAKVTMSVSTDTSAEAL
Method: GTPγ[^35S] binding assays were performed as described. GTPγ[^35S] binding assays were performed in a 96-well FlashPlate™ format in duplicate using 100 pM GTPγ[^35S] and 10 μg membrane per well in assay buffer composed of 50 mM Tris HCl (pH 7.4); 3 mM MgCl2 (pH 7.4); 10 mM MgCl2, 20 mM EGTA, 100 mM NaCl, 30 μM GDP, 0.1% BSA and the following protease inhibitors: 100 μg/ml bacitracin, 100 μg/ml benzamidine, 5 μg/ml aprotinin, and 5 μg/ml leupeptin. […] Assays were performed at 30°C for 1 hr. The FlashPlates™ were then centrifuged at 2000×g for 10 min. Stimulation of GTPγ[^35S] binding was then quantified using a Wallac Microbeta® [16].

[3] = Spontaneous nocturnal food intake; format: in vivo, rat; details: for Decrease in FI compared to veh.: 2 hr time point
Description: All animal studies were approved by the Institutional Animal Care and Use Committee. Male Sprague Dawley rats on normal chow (8 weeks old, 250-300 g on arrival, 300-350 g on test day) were obtained from Charles River. After arrival, animals were individually housed and placed on powdered rat chow. Rats were maintained on a 12-hr light/dark cycle and received food and water ad libitum. In all studies CE-178253 and veh (0.5% methyl cellulose) administration to rats and mice was by oral gavage.
For the spontaneous, nocturnal FI assay, rats were administered veh. (0.5% methyl cellulose) or CE-178253 30 min prior to the start of the dark phase. Food consumption was monitored with electronic scales, and consumption was recorded every 10 min for 12 hr using an automated FI system (Columbus Instruments, Columbus, OH).
The first FI model used for determining anorectic efficacy of CE-178253 was spontaneous nocturnal feeding in rats. In rodents, most feeding activity takes place during the dark phase (nocturnal feeding cycle). In this model, male S-D rats were orally administered compound 30 min prior to the onset of the nocturnal phase. […] In addition, the effect of treatment on hourly FI was also assessed. […] No other time points in the interval analysis reach statistical significance. […] Cumulative food intake at the 2.5 hr time point was 3.2 ± 0.3, 2.4 ± 0.2, 0.5 ± 0.1 and 0.2 ± 0.1 in the veh, 0.3 mg/kg, 1 mg/kg, 3 mg/kg treated rats, respectively.

Core body temperature = format: in vivo, mouse; details: C57BL/6J mice, n = 5 per group
Method: In a separate study, core body temperature was measured in C57BL/6J mice.

Rat oral PK studies = format: in vivo
[4] = test system: central CB1 receptor-driven responses; parameters: method as in PMID 17630359; details: cited from earlier work
[5] = biological target: T2, rat brain membranes (predominantly CB1) (Rattus norvegicus, UniProt P20272); assay: Competition radioligand binding, rat brain membranes
T2 construct: In rat membranes prepared from whole brain; from tissue; host or cells: rat whole brain membranes
T2 sequence (P20272 whole entry): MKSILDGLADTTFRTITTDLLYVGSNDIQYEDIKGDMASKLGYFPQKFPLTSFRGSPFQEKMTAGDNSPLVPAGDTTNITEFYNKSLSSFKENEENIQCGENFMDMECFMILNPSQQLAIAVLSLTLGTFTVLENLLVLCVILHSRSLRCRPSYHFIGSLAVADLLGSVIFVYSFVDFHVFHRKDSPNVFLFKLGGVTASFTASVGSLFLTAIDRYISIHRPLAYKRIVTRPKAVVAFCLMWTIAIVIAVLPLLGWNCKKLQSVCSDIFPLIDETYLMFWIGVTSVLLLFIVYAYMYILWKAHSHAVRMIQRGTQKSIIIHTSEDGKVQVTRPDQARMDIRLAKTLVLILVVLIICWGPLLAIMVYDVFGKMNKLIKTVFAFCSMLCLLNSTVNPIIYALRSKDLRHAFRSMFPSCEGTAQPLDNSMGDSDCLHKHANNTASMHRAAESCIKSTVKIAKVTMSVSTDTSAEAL
Method: HEK293 (CB1) or CHO (CB1 and CB2) cells (ATCC) were stably transfected with the human CB1 or CB2 receptors. Rat brain, and recombinant CB1 and CB2 and membranes were prepared as described. A Pierce™ BCA kit was used to determine protein concentrations.
10 μg of membranes per well from human CB1 and CB 2 receptor transfected cells and rat brain was used in the assay. The plates were covered and placed in an incubator at 30°C for 60 min. At the end of the incubation period 125 μl of stop buffer (10% BSA plus TME) was added to the reaction plate. The plates were then harvested onto GF/C filter plates (Perkin Elmer Life Sciences) presoaked in BSA (5 mg/ml) plus TME. Each filter was washed twice with TME and dried overnight. In the morning the filters were counted on a Wallac Trilux™ counter.
Saturation and competition radioligand binding assays were used to characterize membranes prepared from human recombinant CB1 and CB2 and rat brain membranes.

Indirect calorimetry = format: in vivo, rat; details: for Respiratory Quotient (VCO2/VO2): veh 0.85 ± 0.03; for VO2, ave, 1-3 hr (± S-D), increase in oxygen consumption: veh 3 ± 5
Method: Whole body oxygen consumption was measured using an indirect calorimeter (Oxymax from Columbus Instruments, Columbus, OH) in male Sprague Dawley rats. The rats (300-380 g body weight) were placed in the calorimetry chambers and the chambers were placed in activity monitors. All studies were conducted during the light cycle. Prior to the measurement of oxygen consumption, the rats were fed standard chow ad libitum. During the measurement of oxygen consumption, food was not provided to the rats. Basal, pre-dose oxygen consumption and ambulatory activity were measured every 10 min for 2.5 to 3 hr. At the end of the basal pre-dosing period, the chambers were opened and the animals were administered a single dose of compound (or veh.) by oral gavage. CE-178253 was prepared in 0.5% methylcellulose as veh. Oxygen consumption and ambulatory activity were measured every 10 min for an additional 1-6 hr after dosing. Resting oxygen consumption, during pre- and post-dosing, was calculated by averaging the 10-min O2 consumption values, excluding periods of high ambulatory activity (ambulatory activity count > 100) and excluding the first 5 values of the pre-dose period and the first value from the post-dose period. Change in oxygen consumption is reported as percent and is calculated by dividing the post-dosing resting oxygen consumption by the pre-dose oxygen consumption (X 100). VO2, VCO2, RER and locomotor activity were all measured.

Inhibition of binding at panel sites [1]: ≤ 50%
Plasma-to-brain concentration ratio at […] [2]: 2.9 ± 0.25
Inverse agonist potency weaker than binding potency (human CB1 in CHO cells): 6 fold
Inverse agonist potency weaker than functional potency (human CB1 in CHO cells): 29 fold
IC50 (human CB1 in CHO cells; decrease in basal GTPγ[35S] binding): 2 ± 0.56 nM
Emax (human CB1 in CHO cells; percent decrease in basal GTPγ[35S] binding, read-out: Intrinsic Activity): 21%
EC50 ([3]; Rattus norvegicus, unbound plasma concentration (Cave, fu, p, 0-2.5 hr), cumulative FI at 2.5 hr post dose, read-out: Unbound EC50, reduction of food intake): 0.5 nM
Exposure in chow-fed versus DIO rats (Rat oral PK studies; PK studies): no differences in exposure
Tmax (Rat oral PK studies; Sprague Dawley, rat, in vivo, oral, data not shown): 1 h
Ki [5]: 0.43 ± 0.13 nM
SMILES: CCNC1(C(N)=O)CN(c2nc(C)nc3c(-c4ccc(Cl)cc4)c(-c4ccccc4Cl)nn23)C1 [CE-178253]
Decrease in FI compared to veh. ([3]; 0.3 mg/kg p.o.): 25%
Decrease in FI compared to veh. ([3]; 1 mg/kg p.o.): 84%
Decrease in FI compared to veh. ([3]; 3 mg/kg p.o.): 94%
Increase in core body temperature compared to veh (Core body temperature; 1 mg/kg): 0.7 ± 0.3 °C
Increase in core body temperature compared to veh (Core body temperature; 3 mg/kg): 1.2 ± 0.3 °C
Effect on CP-55940 responses in all four components of the tetrad [4]: dose-dependently reversed
Respiratory Quotient (VCO2/VO2) (Indirect calorimetry; 1 mg/kg p.o.): 0.74 ± 0.02
VO2, ave, 1-3 hr (± S-D), increase in oxygen consumption (Indirect calorimetry; 1 mg/kg p.o.): 28% and 28 ± 7 %
Respiratory Quotient (VCO2/VO2) (Indirect calorimetry; 3 mg/kg p.o.): 0.75 ± 0.03
VO2, ave, 1-3 hr (± S-D), increase in oxygen consumption (Indirect calorimetry; 3 mg/kg p.o.): 39% and 39 ± 5 %
Respiratory quotient after dosing (Indirect calorimetry; declined from 0.85 over the first hr, dose not stated): 0.75
Acute stimulation of energy expenditure (Indirect calorimetry; rats, dose not stated): greater than 30%

From article PMC2933614, “Quantitative in vitro and in vivo pharmacological profile of CE-178253, a potent and selective cannabinoid type 1 (CB1) Receptor Antagonist” (BMC Pharmacology, 2010)
